How the values were obtained:
Assay in all cases: relative viability (nuclei count vs DMSO), 5 days (fraction); higher = more cells survive
Mirin + Bortezomib = compound: N=C1NC(=O)/C(=C/c2ccc(O)cc2)S1 [Mirin] + CC(C)C[C@H](NC(=O)[C@H](Cc1ccccc1)NC(=O)c1cnccn1)B(O)O [Bortezomib] (partner 0.002 µM)
Summary of the method: (§1)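 Nuclei were stained with Hoechst during a one-step fixation (final 0.05% Triton X-100, 1% formaldehyde, 1 ug/ml Hoechst) carried out 5 days after dosing, then counted on 4× images. The cells, lung cancer lines in 1536-well plates, had been dosed by pin tool the day after seeding with one drug alone or a fixed anchor-drug dose plus five library-drug doses (not always all listed) in √10 steps. Relative viability is the nuclei count in treated wells divided by that in vehicle wells, and each value is the median of duplicate plates.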

[1] = compound: CCC1=CN=CN=C1N2CCN(CC2)CC3=NC4=C(N3)C=C(C=C4)C(F)(F)F + CC(=O)c1c(C)c2cnc(Nc3ccc(N4CCNCC4)cn3)nc2n(C2CCCC2)c1=O [Palbociclib] (partner 0.5 µM)
Summary of the method: as §1

[2] = compound: CCn1c(-c2nonc2N)nc2cnc(Oc3cccc(NC(=O)c4ccc(OCCN5CCOCC5)cc4)c3)cc21 + C[C@@H](Oc1cc(-c2cnn(C3CCNCC3)c2)cnc1N)c1c(Cl)ccc(F)c1Cl [Crizotinib] (partner 1 µM)
Summary of the method: as §1

[3] = compound: CCC1=CN=CN=C1N2CCN(CC2)CC3=NC4=C(N3)C=C(C=C4)C(F)(F)F + N=C(N)NC(=N)NCCc1ccccc1 [Phenformin] (partner 250 µM)
Summary of the method: as §1

Cell Line	relative viability (Mirin + Bortezomib; first compound 0.25 µM)	relative viability (Mirin + Bortezomib; first compound 0.7906 µM)	relative viability (Mirin + Bortezomib; first compound 2.5 µM)	relative viability (Mirin + Bortezomib; first compound 7.906 µM)	relative viability (Mirin + Bortezomib; first compound 25 µM)	relative viability ([1]; first compound 0.04 µM)	relative viability ([1]; first compound 0.1265 µM)	relative viability ([1]; first compound 0.4 µM)	relative viability ([1]; first compound 1.265 µM)	relative viability ([1]; first compound 4 µM)	relative viability ([2]; first compound 0.04 µM)	relative viability ([2]; first compound 0.1265 µM)	relative viability ([2]; first compound 0.4 µM)	relative viability ([2]; first compound 1.265 µM)	relative viability ([2]; first compound 4 µM)	relative viability ([3]; first compound 0.04 µM)	relative viability ([3]; first compound 0.1265 µM)	relative viability ([3]; first compound 0.4 µM)	relative viability ([3]; first compound 1.265 µM)	relative viability ([3]; first compound 4 µM)
SW 1573	1.01	1.06	1.14	0.95	0.855	0.345	0.406	0.384	0.262	0.32	0.874	0.704	0.707	0.519	0.391	0.405	0.415	0.3	0.406	0.357
NCI-H2085	1.13	0.972	1.18	0.975	1.02	0.371	0.398	0.473	0.488	0.442	0.988	0.797	0.661	0.741	0.72	0.724	0.78	0.663	0.522	0.735
NCI-H520	0.503	0.13	0.632	0.355	0.358	0.255	0.233	0.194	0.174	0.2	0.957	0.784	0.751	0.565	0.371	0.553	0.648	0.38		0.46
Calu-6	0.925	1.08	1.04	0.895	0.841						0.864	0.698	0.519	0.346	0.373					
SK-LU-1	1.22	1.22	1.19		1.15	0.412	0.394	0.41	0.26	0.418	1.12	0.744	0.61	0.46	0.355	0.523	0.534	0.509	0.385	0.579
LCLC-103H	1.12	1.07	0.959	1.23	1.12	0.501	0.471	0.436	0.485	0.448	1.08	1.09	0.962	1.01	0.967	0.303	0.294	0.322	0.289	0.348
HCC-15	1.02	0.928	1.03	0.893	0.949	0.717	0.723	0.646	0.612	0.682	0.961	0.746	0.723	0.75	0.772	0.487	0.46	0.465	0.445	0.434
H3255	0.778	0.725	0.837	0.698	0.769	0.313	0.308	0.325	0.292	0.343	1.13	0.815	0.725	0.49	0.637	0.398	0.42	0.347	0.352	0.392
NCI-H1792	0.982	0.997	0.902	0.883	0.984	0.68	0.616	0.687	0.542	0.611	1.08	0.99		0.592	0.841	0.382	0.259	0.162		0.222
NCI-H1563	1.07	1.11	0.943	0.8	0.812						0.768	0.863	0.816	0.789	0.668	0.713	0.639	0.662	0.661	0.689
NCI-H522						1.02	1.11	0.956	0.818	0.916						0.628	0.583	0.571	0.64	0.601
NCI-H1299	1.02	1.12	1.01	1.05	1.17						0.961	0.878	0.768	0.71	0.473					
LK-2						0.685	0.469	0.752	0.381	0.594	0.222	0.236	0.264	0.242	0.176	0.416	0.565	0.407	0.23	0.523
NCI-H358						0.135	0.136	0.121	0.128	0.141	0.561	0.661	0.522	0.467	0.281	0.345	0.289	0.372	0.317	0.349
SK-MES-1						0.322	0.327	0.278	0.32	0.318	1.12	0.883	0.804	0.742	0.645	0.613	0.608	0.583	0.622	0.528
NCI-H1648						0.235			0.296	0.303										
EBC-1	0.596	0.629	0.55	0.535	0.316						0.227	0.207	0.175	0.17	0.136					
NCI-H1395						0.598	0.596	0.637		0.665						0.41	0.436	0.444	0.415	0.458
IA-LM	0.687	0.961	0.757	0.632	0.845						1.01	0.831	0.859	0.699	0.758					
NCI-H596	1.12		0.982	1	0.905						0.857	0.934	0.932	0.959	1.03	0.729	0.66	0.67		0.79
NCI-H1703	0.449	0.483	0.347		0.227						0.641	0.799	0.484	0.426	0.205					
NCI-H2170						0.397	0.402	0.375	0.385	0.386	1.03	1.21	1.15	1.17	1.26	0.401	0.359	0.351	0.382	0.361
NCI-H1793						0.248	0.294	0.29	0.269	0.279						0.359	0.354	0.292		0.253

— the supplement of paper PMC10307832
